Here are results for two molecules from US20060233893A1, “Aqueous solutions for the reduction of fatty tissue” (priority 2004, published 2006).

The experiment deals with fatty tissue. The experiment is described as follows: administration of solutions to fatty tissue in aesthetic treatment of cellulite by lipotomy. Format: in vivo. The note with it: added to solution of approximately from 20 to 90 mOsm/l.

Consider `O=C(O)Cc1cc(I)c(Oc2ccc(O)c(I)c2)c(I)c1` [tiratricol, triiodothyroacetic acid], for which the “efficacy of a highly hypotonic lipotomy solution in the destruction of fatty tissue” value was “increased the efficacy”.
For the molecule phosphatidylcholine, the “efficacy of a highly hypotonic lipotomy solution in the destruction of fatty tissue” value is “increased the efficacy”.
